The source of these data is patent US20060014206A1, “Assay methods for state-dependent calcium channel agonists/antagonists” (priority 2002, published 2006).

Structures are written as SMILES. pEC50: −log10 of the molar value.

In this assay the target is T1, L-type calcium channel, the α1C subunit (Homo sapiens, UniProt Q13936).
T1 construct: expressed in transfected cells
Nature of the assay: FLIPR assay of K+-stimulated calcium influx in C1-6-37-3 cells (HEK 293 stably transfected with L-type α1C channel and Kir 2.3). Format: cell-based. The conditions noted are these: fluo-3 loaded cells, increasing potassium concentration (FIG. 4).

T1 sequence (Q13936 whole entry): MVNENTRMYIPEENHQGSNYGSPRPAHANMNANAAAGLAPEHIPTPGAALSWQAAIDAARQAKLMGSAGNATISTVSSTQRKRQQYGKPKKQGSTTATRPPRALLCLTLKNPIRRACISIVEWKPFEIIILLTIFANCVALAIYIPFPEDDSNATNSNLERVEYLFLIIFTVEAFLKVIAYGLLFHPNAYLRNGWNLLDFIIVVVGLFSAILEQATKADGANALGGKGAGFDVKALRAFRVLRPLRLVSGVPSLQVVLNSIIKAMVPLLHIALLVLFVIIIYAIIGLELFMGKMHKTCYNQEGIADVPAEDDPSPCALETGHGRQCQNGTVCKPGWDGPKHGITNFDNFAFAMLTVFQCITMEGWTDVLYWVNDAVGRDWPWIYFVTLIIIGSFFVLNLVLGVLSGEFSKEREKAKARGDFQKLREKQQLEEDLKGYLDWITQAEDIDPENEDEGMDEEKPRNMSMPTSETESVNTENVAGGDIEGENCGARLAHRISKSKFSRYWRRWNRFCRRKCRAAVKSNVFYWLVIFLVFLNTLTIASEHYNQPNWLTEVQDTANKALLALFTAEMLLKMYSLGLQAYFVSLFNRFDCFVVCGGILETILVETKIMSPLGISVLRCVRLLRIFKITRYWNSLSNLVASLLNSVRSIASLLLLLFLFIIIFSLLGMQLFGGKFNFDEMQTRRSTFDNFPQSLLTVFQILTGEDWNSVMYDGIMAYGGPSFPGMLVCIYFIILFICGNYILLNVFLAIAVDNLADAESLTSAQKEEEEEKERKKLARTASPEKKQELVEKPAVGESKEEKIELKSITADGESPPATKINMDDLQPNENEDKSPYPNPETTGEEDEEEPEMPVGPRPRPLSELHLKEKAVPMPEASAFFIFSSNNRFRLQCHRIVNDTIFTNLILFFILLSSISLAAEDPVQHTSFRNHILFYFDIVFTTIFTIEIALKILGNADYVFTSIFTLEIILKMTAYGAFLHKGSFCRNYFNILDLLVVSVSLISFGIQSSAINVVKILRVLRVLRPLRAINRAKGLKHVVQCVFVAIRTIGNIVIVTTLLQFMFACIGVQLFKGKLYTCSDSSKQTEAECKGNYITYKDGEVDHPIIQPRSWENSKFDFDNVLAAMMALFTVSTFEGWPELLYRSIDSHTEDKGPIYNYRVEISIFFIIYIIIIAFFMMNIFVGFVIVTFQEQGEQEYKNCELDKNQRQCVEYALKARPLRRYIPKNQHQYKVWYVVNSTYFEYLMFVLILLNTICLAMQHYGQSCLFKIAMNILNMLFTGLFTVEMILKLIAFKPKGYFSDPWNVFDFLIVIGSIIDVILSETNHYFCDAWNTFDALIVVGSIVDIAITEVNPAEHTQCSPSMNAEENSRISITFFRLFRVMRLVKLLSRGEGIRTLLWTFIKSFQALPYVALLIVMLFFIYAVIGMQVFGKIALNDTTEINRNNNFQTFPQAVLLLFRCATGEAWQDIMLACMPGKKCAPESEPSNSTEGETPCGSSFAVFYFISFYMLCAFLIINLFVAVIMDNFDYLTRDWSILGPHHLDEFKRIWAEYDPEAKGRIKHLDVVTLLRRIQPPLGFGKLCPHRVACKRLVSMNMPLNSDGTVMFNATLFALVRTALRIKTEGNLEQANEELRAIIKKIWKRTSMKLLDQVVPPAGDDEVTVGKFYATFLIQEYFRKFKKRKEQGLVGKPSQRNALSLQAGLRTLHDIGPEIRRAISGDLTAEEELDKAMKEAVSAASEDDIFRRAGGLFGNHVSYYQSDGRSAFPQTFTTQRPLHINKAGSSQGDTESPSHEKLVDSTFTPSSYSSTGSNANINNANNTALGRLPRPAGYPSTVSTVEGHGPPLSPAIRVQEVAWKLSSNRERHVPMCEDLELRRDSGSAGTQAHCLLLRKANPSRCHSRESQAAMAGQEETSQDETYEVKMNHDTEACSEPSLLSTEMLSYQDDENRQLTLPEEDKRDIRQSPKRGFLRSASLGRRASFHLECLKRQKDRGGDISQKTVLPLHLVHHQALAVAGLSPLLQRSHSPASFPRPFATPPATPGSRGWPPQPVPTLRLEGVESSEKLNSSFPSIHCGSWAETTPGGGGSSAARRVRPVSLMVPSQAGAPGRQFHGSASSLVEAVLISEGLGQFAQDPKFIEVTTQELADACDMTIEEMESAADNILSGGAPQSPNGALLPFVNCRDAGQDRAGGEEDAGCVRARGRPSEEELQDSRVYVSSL
T1 sequence (P54289 25-946 partner limits assumed): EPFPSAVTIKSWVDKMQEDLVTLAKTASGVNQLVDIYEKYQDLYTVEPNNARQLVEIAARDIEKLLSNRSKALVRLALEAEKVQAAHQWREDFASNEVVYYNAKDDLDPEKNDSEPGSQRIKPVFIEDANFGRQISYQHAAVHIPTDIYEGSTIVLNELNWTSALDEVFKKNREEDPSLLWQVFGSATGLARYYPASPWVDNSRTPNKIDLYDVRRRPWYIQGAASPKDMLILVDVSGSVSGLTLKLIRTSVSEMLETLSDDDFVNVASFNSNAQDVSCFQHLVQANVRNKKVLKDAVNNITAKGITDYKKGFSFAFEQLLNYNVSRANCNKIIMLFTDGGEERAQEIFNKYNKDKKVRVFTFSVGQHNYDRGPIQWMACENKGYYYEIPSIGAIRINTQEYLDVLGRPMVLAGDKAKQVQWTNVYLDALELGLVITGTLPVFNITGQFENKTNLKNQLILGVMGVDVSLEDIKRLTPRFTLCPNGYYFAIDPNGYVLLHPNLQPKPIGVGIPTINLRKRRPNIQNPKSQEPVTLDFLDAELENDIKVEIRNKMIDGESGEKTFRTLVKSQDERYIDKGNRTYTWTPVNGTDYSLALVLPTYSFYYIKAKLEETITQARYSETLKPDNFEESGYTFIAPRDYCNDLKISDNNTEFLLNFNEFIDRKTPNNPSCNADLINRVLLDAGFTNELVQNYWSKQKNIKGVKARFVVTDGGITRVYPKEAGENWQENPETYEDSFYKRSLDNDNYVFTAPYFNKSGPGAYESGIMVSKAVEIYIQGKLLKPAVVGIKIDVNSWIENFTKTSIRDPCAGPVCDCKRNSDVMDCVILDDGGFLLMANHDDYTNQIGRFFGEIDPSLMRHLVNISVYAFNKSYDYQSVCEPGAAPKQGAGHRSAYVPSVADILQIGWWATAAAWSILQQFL
T1 sequence (P54289 947-1103 partner limits assumed): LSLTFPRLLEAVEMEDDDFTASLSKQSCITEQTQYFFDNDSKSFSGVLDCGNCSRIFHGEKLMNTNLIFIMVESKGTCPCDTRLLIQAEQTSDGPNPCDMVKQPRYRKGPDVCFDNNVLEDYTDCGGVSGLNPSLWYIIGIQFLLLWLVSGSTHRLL
T1 sequence (Q08289 whole entry partner): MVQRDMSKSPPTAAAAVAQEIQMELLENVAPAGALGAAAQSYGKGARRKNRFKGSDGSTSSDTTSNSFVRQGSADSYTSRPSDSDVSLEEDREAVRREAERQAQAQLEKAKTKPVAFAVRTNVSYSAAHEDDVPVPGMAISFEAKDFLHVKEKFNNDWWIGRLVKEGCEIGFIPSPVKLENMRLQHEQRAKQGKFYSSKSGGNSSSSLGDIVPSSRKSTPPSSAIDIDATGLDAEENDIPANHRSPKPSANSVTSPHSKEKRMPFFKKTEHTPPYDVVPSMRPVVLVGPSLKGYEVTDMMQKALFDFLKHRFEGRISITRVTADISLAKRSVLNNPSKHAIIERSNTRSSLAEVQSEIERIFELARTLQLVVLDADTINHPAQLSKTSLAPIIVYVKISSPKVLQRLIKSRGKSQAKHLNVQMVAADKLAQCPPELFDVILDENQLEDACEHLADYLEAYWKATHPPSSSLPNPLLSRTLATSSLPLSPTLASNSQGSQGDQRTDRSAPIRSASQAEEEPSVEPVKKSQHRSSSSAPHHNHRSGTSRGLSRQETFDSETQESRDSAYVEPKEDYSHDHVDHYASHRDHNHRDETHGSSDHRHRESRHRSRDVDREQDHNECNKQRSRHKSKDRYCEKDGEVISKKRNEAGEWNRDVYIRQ
Description: The cell line used in this embodiment has a stably transfected L-type calcium channel, the α1C subunit. It also was transfected with the Kir 2.3 inward rectifier K channel, which allows for control of cell membrane potential through alteration of extracellular [K^+]o. Preincubation of the cells for 10 min in 30 mM [K^+]o partially depolarizes the cells.
Specifically exemplified herein is an assay to determine state-dependent drug-calcium channel interactions using a cell line that co-expresses a potassium channel (Kir2.3) that determines the resting membrane potential of the cells as a function of the external potassium ion concentration ([K]o) and a voltage gated calcium channel. Co-expressed in these cells is the L-type voltage gated calcium channel complex (alpha1C, alpha2-delta, beta2a). Potassium is used in a two step manner in this assay. First it is used to set the resting membrane potential (Vm) during antagonist incubation. […] This calcium influx is detected using a calcium sensitive dye (eg Fluo-3, Fluo4, Fura2, etc.). If the calcium influx is diminished by exposure to antagonists, this will be detected when compared to the control condition.
Hek 293 cells were stably transfected with the alpha 1C subunit of the L-type Calcium ion channel and Kir 2.3 inward K^+ rectifying channel (C1-6-37-3 cells). Calcium influx into the cells was measured in a FLIPR™ (Molecular Devices, CA). […]

Turning to `[K+]` [K^+], the pEC50 (as a rule, the EC50 on a negative log10 scale, so that one unit is a factor of ten) was 1.96.
